Tests used:
[1] = target: T1, Solute carrier family 22 member 6 (Rattus norvegicus, UniProt O35956); assay: TP_TRANSPORTER: Western in vivo, SD rat, kidney; type: functional, organism-based, Sprague-Dawley
T1 sequence (O35956 whole entry): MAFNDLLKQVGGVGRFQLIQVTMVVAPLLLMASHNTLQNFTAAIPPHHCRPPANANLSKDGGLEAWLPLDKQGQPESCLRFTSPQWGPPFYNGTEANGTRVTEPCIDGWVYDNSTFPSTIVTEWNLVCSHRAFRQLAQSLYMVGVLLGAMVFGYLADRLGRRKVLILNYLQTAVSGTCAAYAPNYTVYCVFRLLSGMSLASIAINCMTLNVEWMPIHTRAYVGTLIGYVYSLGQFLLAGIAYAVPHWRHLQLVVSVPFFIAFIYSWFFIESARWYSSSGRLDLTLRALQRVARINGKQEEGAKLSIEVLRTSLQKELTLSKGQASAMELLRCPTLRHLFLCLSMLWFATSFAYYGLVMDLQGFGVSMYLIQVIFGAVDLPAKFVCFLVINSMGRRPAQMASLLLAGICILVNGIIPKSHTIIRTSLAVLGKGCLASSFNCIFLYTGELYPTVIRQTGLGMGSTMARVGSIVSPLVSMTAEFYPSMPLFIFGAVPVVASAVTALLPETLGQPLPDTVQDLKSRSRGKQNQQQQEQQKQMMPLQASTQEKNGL

[2] = target: T1, Solute carrier family 22 member 6; assay: TP_TRANSPORTER: quantitative PCR in vivo, SD rat, kidney; type: functional, organism-based, Sprague-Dawley

Activity [1]: inducer []
Activity [2]: inducer []
SMILES: NS(=O)(=O)c1cc(C(=O)O)c(NCc2ccco2)cc1Cl [FUROSEMIDE]

Reference: ChEMBL document CHEMBL2074143, “Up-regulation of organic anion transporter 1 protein is induced by chronic furosemide or hydrochlorothiazide infusion in rat kidney” (Nephrol Dial Transplant, 2003)
